Measured values published in PubChem BioAssay AID2060503 (Molecular Pharmacology Branch, DTP, NCI, 2025).
pIC50: −log10 of the molar value. Values belong to the compound of their own block, whether it stands above or below them.

Test system: 817829-284-R-J1-PDC complex spheroids, viability
Test: Anticancer human tumor 817829-284-R-J1-PDC patient-derived colon adenocarcinoma cell line growth inhibition [GQUAD]
Details: for pIC50: curve of first compound; for viability, T/C: stronger effect = lower value
How it was run: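 Viability of tumor cells grown as complex spheroids with endothelial and stromal cells, exposed to drug combinations. Top concentration at or near clinical Cmax (else 10 microM), diluted in half-log increments.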

[1] = second compound 0.0316 µM, first compound 0.0316 µM
[2] = second compound 0.0316 µM, first compound 0.1 µM
[3] = second compound 0.0316 µM, first compound 0.316 µM
[4] = second compound 0.0316 µM, first compound 1 µM
[5] = second compound 0.0316 µM, first compound 3.16 µM
[6] = second compound 0.0316 µM, first compound 10 µM
[7] = second compound 0.1 µM, first compound 0.0316 µM
[8] = second compound 0.1 µM, first compound 0.1 µM
[9] = second compound 0.1 µM, first compound 0.316 µM
[10] = second compound 0.1 µM, first compound 1 µM
[11] = second compound 0.1 µM, first compound 3.16 µM
[12] = second compound 0.1 µM, first compound 10 µM
[13] = second compound 0.316 µM, first compound 0.0316 µM
[14] = second compound 0.316 µM, first compound 0.1 µM
[15] = second compound 0.316 µM, first compound 0.316 µM
[16] = second compound 0.316 µM, first compound 1 µM
[17] = second compound 0.316 µM, first compound 3.16 µM
[18] = second compound 0.316 µM, first compound 10 µM
[19] = second compound 1 µM, first compound 0.0316 µM
[20] = second compound 1 µM, first compound 0.1 µM
[21] = second compound 1 µM, first compound 0.316 µM
[22] = second compound 1 µM, first compound 1 µM
[23] = second compound 1 µM, first compound 3.16 µM
[24] = second compound 1 µM, first compound 10 µM
[25] = second compound 3.16 µM, first compound 0.0316 µM
[26] = second compound 3.16 µM, first compound 0.1 µM
[27] = second compound 3.16 µM, first compound 0.316 µM
[28] = second compound 3.16 µM, first compound 1 µM
[29] = second compound 3.16 µM, first compound 3.16 µM
[30] = second compound 3.16 µM, first compound 10 µM
[31] = second compound 10 µM, first compound 0.0316 µM
[32] = second compound 10 µM, first compound 0.1 µM
[33] = second compound 10 µM, first compound 0.316 µM
[34] = second compound 10 µM, first compound 1 µM
[35] = second compound 10 µM, first compound 3.16 µM
[36] = second compound 10 µM, first compound 10 µM
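Also: spheroids exposed to agents for 7 days before readout.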
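For viability, T/C in this document: percent viability relative to DMSO vehicle control taken as 100%.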

- pIC50 (second compound 0.0316 µM): 6.70
- pIC50 (second compound 0.1 µM): > 7.50
- pIC50 (second compound 0.316 µM): > 7.50
- pIC50 (second compound 1 µM): > 7.50
- pIC50 (second compound 3.16 µM): > 7.50
- pIC50 (second compound 10 µM): > 7.50
Compound: CC1COCCN1c1cc(C2(S(C)(=N)=O)CC2)nc(-c2ccnc3[nH]ccc23)n1 (stereo unspecified) + Cc1cnc(CNC(=O)c2c(=O)c3ccc(N4CCCN(C)CC4)nc3n3c2sc2ccccc23)cn1
- viability, T/C [1]: 82.8%
- viability, T/C [2]: 71.1%
- viability, T/C [3]: 36.1%
- viability, T/C [4]: 15.2%
- viability, T/C [5]: 12.5%
- viability, T/C [6]: 10.4%
- viability, T/C [7]: 47.3%
- viability, T/C [8]: 37.9%
- viability, T/C [9]: 24.1%
- viability, T/C [10]: 14.4%
- viability, T/C [11]: 11.4%
- viability, T/C [12]: 8.15%
- viability, T/C [13]: 29.1%
- viability, T/C [14]: 29.6%
- viability, T/C [15]: 22.2%
- viability, T/C [16]: 16.5%
- viability, T/C [17]: 12.6%
- viability, T/C [18]: 9.19%
- viability, T/C [19]: 29.2%
- viability, T/C [20]: 27.2%
- viability, T/C [21]: 21.3%
- viability, T/C [22]: 17.1%
- viability, T/C [23]: 10.8%
- viability, T/C [24]: 8.91%
- viability, T/C [25]: 21.5%
- viability, T/C [26]: 23.8%
- viability, T/C [27]: 22.3%
- viability, T/C [28]: 15.2%
- viability, T/C [29]: 12.8%
- viability, T/C [30]: 8.2%
- viability, T/C [31]: 0.17%
- viability, T/C [32]: 0.16%
- viability, T/C [33]: 0.21%
- viability, T/C [34]: 0.24%
- viability, T/C [35]: 0.23%
- viability, T/C [36]: 0.24%

- pIC50 (second compound 0.0316 µM): 6.62
- pIC50 (second compound 0.1 µM): > 7.50
- pIC50 (second compound 0.316 µM): > 7.50
- pIC50 (second compound 1 µM): > 7.50
- pIC50 (second compound 3.16 µM): > 7.50
- pIC50 (second compound 10 µM): > 7.50
Compound: COc1ccc([C@@H](O)c2cc(-c3ncnc4cc(N5CCOCC5)ccc34)c(F)cc2Cl)nn1 + Cc1cnc(CNC(=O)c2c(=O)c3ccc(N4CCCN(C)CC4)nc3n3c2sc2ccccc23)cn1
- viability, T/C [1]: 81.7%
- viability, T/C [2]: 75.5%
- viability, T/C [3]: 41%
- viability, T/C [4]: 31.2%
- viability, T/C [5]: 27.9%
- viability, T/C [6]: 20.9%
- viability, T/C [7]: 42%
- viability, T/C [8]: 37.5%
- viability, T/C [9]: 31.9%
- viability, T/C [10]: 24.2%
- viability, T/C [11]: 24.2%
- viability, T/C [12]: 19.3%
- viability, T/C [13]: 27.7%
- viability, T/C [14]: 29.7%
- viability, T/C [15]: 24%
- viability, T/C [16]: 22%
- viability, T/C [17]: 22.8%
- viability, T/C [18]: 18%
- viability, T/C [19]: 25.1%
- viability, T/C [20]: 25.6%
- viability, T/C [21]: 25.1%
- viability, T/C [22]: 17.7%
- viability, T/C [23]: 18.2%
- viability, T/C [24]: 12.7%
- viability, T/C [25]: 21.2%
- viability, T/C [26]: 22.7%
- viability, T/C [27]: 21.6%
- viability, T/C [28]: 17%
- viability, T/C [29]: 15%
- viability, T/C [30]: 8.95%
- viability, T/C [31]: 0.12%
- viability, T/C [32]: 0.16%
- viability, T/C [33]: 0.18%
- viability, T/C [34]: 0.23%
- viability, T/C [35]: 0.2%
- viability, T/C [36]: 0.19%

- pIC50 (second compound 0.0316 µM): 5.97
- pIC50 (second compound 0.1 µM): > 7.50
- pIC50 (second compound 0.316 µM): > 7.50
- pIC50 (second compound 1 µM): > 7.50
- pIC50 (second compound 3.16 µM): > 7.50
- pIC50 (second compound 10 µM): > 7.50
Compound: O=C(c1cc(Cc2n[nH]c(=O)c3ccccc23)ccc1F)N1CCN(C(=O)C2CC2)CC1 + Cc1cnc(CNC(=O)c2c(=O)c3ccc(N4CCCN(C)CC4)nc3n3c2sc2ccccc23)cn1
- viability, T/C [1]: 78.9%
- viability, T/C [2]: 65.2%
- viability, T/C [3]: 58.5%
- viability, T/C [4]: 51.6%
- viability, T/C [5]: 44.2%
- viability, T/C [6]: 35.6%
- viability, T/C [7]: 30.9%
- viability, T/C [8]: 33.5%
- viability, T/C [9]: 32.9%
- viability, T/C [10]: 32.1%
- viability, T/C [11]: 33.8%
- viability, T/C [12]: 29.9%
- viability, T/C [13]: 24.3%
- viability, T/C [14]: 24.5%
- viability, T/C [15]: 25.1%
- viability, T/C [16]: 23.7%
- viability, T/C [17]: 26.4%
- viability, T/C [18]: 27.4%
- viability, T/C [19]: 18.6%
- viability, T/C [20]: 23.9%
- viability, T/C [21]: 20.3%
- viability, T/C [22]: 22.8%
- viability, T/C [23]: 23.1%
- viability, T/C [24]: 23.4%
- viability, T/C [25]: 18.1%
- viability, T/C [26]: 21%
- viability, T/C [27]: 21.3%
- viability, T/C [28]: 19%
- viability, T/C [29]: 20%
- viability, T/C [30]: 21.4%
- viability, T/C [31]: 0.17%
- viability, T/C [32]: 0.18%
- viability, T/C [33]: 0.22%
- viability, T/C [34]: 0.2%
- viability, T/C [35]: 0.22%
- viability, T/C [36]: 0.21%
